Here are results for eight molecules from paper PMC7504770, “Mechanistic Insights into the Chaperoning of Human Lysosomal-Galactosidase Activity: Highly Functionalized Aminocyclopentanes and C-5a-Substituted Derivatives of 4-epi-Isofagomine” (Molecules, 2020).

Structures are written as SMILES. Entries after “also recorded” stand apart in the source; their conditions may differ.

The target of experiment [1] is T1, R201C mutant lysosomal β-galactosidase (Homo sapiens, UniProt P16278, R201C).
T1 construct: Cell lines from one GM1-Gangliosidosis-patient (R201C) and one WT; endogenous in cells; host or cells: human skin fibroblasts of a GM1-gangliosidosis patient (R201C)
T1 sequence (P16278 29-677 R201C): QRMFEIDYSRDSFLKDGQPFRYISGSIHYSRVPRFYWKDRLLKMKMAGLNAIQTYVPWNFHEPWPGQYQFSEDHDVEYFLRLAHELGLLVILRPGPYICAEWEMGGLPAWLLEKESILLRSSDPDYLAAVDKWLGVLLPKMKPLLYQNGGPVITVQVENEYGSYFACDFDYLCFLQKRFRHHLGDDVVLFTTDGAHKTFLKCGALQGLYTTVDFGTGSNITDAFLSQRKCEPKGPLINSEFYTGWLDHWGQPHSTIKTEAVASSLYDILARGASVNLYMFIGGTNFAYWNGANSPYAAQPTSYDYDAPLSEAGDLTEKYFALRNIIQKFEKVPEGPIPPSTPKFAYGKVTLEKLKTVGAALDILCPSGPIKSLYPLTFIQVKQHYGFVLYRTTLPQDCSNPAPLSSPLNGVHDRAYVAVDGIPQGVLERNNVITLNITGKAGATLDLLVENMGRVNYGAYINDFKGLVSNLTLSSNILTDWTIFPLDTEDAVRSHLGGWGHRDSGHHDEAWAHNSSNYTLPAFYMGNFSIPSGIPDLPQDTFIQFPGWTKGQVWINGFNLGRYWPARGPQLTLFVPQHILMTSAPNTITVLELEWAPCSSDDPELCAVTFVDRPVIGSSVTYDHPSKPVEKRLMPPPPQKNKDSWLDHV
The experiment is described as follows: Chaperoning activity in R201C patient fibroblasts. The experiment is classed as cell-based. Conditions: for chaperoning activity with R201C mutant β-galactosidase: R201C cells (juvenile GM1-gangliosidosis), Figure 7; for β-galactosidase activity at higher concentrations: concentrations higher than 10 µM; for β-galactosidase activity at more than 100 µM: concentrations of more than 100 µM; for influence on β-galactosidase activity: incubation of the cells up to 10 µM. The method, then: Human β-galactosidase and β-hexosaminidase activity measurements were performed in duplicate assays, unless otherwise stated. Fibroblast cells were harvested by trypsinization in 0.9% NaCl containing 0.01% Triton, homogenized by sonication (3 × 10 s, Sonifier Bandelin Sonopuls, Bandelin, Berlin, Germany) and centrifuged at 13,000 rpm for 2 min in a table top centrifuge (Biofuge Pico, Heraeus, Hanau, Germany). Protein amounts were determined according to the method of Lowry.
For assessment of β-Gal activity, 20 µL of cell homogenate were mixed with 100 µL of 0.5 mM 4-methylumbelliferyl-β-D-galactopyranoside (Sigma-Aldrich, St. Louis, MO, USA), in 100 mM citrate buffer (pH 4.0) containing 100 mM NaCl and 0.02% NaN3. After incubation at 37 °C for 30 min, the reaction was stopped by adding 2.5 mL 400 mM glycine/NaOH (pH 10.4).
Cell lines from one GM1-Gangliosidosis-patient (R201C) and one WT, were exposed to compounds 22, 31, and 37, for evaluation of their chaperone effects.
Human skin fibroblasts were grown in minimal essential medium (MEM) with Earle’s Salts (Sigma Aldrich, St. Louis, MO, USA) containing 10% fetal bovine serum, 400 µM L-glutamine, and 50 µg/mL gentamycin at 37 °C and 5% CO2. All cells used in this study were between the third and nineteenth passages.
Potential chaperones were dissolved in DMSO and diluted in 10 mM phosphate buffer (pH 7.0) containing 100 mM NaCl, 0.01% NaN3, and 0.01% Triton for the IC50-measurements and in MEM for the in-vivo tests. The total DMSO concentration in the media was less than 1% and had no effect on β-Gal activity or cell viability.
Fibroblasts were grown to semi-confluency in 6-well plates. Particular chaperone was added to the culture medium at following concentrations: 100–0.02 µmol. Cells were incubated for four additional days at 37 °C. Cells were harvested by scraping and prepared for β-galactosidase and β-hexosaminidase assays as described above.

Experiment [2] deals with lac Z β-galactosidase from E. coli (GH2) (Escherichia coli, UniProt P00722). Put plainly: Ki determination, E. coli lac Z β-galactosidase. In kind it is biochemical. The method, then:
(§1) Kinetic studies were performed at 37 °C in an appropriate buffer (specific conditions depicted below). In a typical assay, the enzyme was incubated with different inhibitor concentrations for up to 5 min before initiating the reaction by the addition of substrate. The initial reaction rate was measured by monitoring the increase in absorbance at 400 nm for up to ten minutes using a Cary4000 (Varian, Palo Alto, CA, USA). Ki determinations were performed using at least two different substrate concentrations. For each inhibitor, a range of four to six inhibitor concentrations bracketing the ultimately determined Ki value was used for each substrate concentration. Dixon plots (1/v vs. [I]) were constructed to validate the use of competitive inhibition model. The data were then fit using non-linear regression analysis with Grafit 7.0 [Erithacus Software, UK].
n.i. stands for no inhibition or weak inhibition with an estimated Ki value higher than 1 mM.
E. coli lac z β-galactosidase: 50 mM sodium phosphate, 1.0 mM MgCl2 (pH 7). Substrate: pNP β-Gal, Km = 60 µM.

In experiment [3] the target is α-glucosidase from S. cerevisiae (GH13). Put plainly: Ki determination, S. cerevisiae α-glucosidase. In kind it is biochemical. The following applies: 37 °C, pH 7.0, substrate pNP α-Glc; read-out: Ki S. cer. (α-Glc) (GH13). The method, then:
as §1, with “UK]. […] S. cerevisiae α-Glucosidase: 50 mM sodium phosphate buffer (pH 7.0).” for “UK].”

Chain of lac Z β-galactosidase from E. coli (GH2) (P00722 2-1024): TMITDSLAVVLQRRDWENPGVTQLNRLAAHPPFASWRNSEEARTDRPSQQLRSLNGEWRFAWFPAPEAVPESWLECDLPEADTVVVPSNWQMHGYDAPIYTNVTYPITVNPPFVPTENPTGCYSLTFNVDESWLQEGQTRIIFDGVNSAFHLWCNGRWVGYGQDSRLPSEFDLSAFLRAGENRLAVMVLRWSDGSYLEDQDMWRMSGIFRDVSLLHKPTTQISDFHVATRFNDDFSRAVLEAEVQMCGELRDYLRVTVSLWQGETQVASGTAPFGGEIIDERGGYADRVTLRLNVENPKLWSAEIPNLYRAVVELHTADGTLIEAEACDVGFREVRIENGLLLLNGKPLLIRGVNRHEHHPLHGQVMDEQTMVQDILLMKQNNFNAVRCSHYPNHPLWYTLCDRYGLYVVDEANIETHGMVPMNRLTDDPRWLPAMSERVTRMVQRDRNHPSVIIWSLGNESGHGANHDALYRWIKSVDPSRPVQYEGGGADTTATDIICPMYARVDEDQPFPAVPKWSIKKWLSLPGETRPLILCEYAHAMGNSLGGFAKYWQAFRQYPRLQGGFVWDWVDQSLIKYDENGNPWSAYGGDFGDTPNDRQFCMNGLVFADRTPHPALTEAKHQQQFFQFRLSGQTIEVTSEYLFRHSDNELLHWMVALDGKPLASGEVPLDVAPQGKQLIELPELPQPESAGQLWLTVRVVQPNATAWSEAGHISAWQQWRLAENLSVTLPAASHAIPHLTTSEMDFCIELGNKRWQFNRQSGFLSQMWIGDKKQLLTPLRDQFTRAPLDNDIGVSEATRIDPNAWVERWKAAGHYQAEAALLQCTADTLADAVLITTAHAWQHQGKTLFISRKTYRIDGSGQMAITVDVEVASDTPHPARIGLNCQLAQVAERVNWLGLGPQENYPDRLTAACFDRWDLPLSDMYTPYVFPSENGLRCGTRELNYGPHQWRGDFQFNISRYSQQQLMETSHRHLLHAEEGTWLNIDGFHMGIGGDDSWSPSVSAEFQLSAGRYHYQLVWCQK

Turning to `CN(C)c1cccc2c(S(=O)(=O)NCCCCC3NCC(O)C(O)C3CO)cccc12` (stereo not drawn) [Compound 11], the “chaperoning activity with R201C mutant β-galactosidase” value (from here on “chaperoning activity”) in experiment [1] was “reacted very positively”.
On the same count and under the same terms, next, `CN(C)c1cccc2c(S(=O)(=O)NCCCCCC[C@@H]3NC[C@@H](O)[C@@H](O)[C@H]3CO)cccc12` [Compound 14]: “reacted very positively”.
Turning to `CCCCCCCCN[C@H]1[C@H](O)[C@@H](O)[C@@H](O)[C@H]1CO` [Compound 16], the Ki (as a rule, the dissociation constant of the complex between target and ligand, obtained from inhibition or displacement) in experiment [2] is 0.0132 µM; in experiment [3], over 1000 µM. Moreover, the “chaperoning activity” value in experiment [1] was “reacted very positively”.
`CN(C)c1cccc2c(S(=O)(=O)NCCCCCCN[C@H]3C[C@@H](O)[C@@H](O)[C@H]3CO)cccc12` [Compound 31, (1R,2S,3R,4S)-3-Hydroxymethyl-4-(6′-dansylaminohexylamino)cyclopentane-1,2-diol]: in experiment [2], affinity was put at a Ki of 0.0041 µM. Further, in experiment [1], the “chaperoning activity” value is on record as “distinctly reduced chaperoning activity”, the “β-galactosidase activity at higher concentrations” value is “decreased enzyme activity”, the “β-galactosidase activity at more than 100 µM” value is given as “dramatic loss” and the “influence on β-galactosidase activity” value is listed as “no notable influence”. Besides, the Ki in experiment [3] was over 1000 µM.
`CN(C)c1cccc2c(S(=O)(=O)NCCCCCCN[C@H]3[C@H](O)[C@@H](O)[C@@H](O)[C@H]3CO)cccc12` [Compound 17]: the “chaperoning activity” value in experiment [1] is given as “reacted very positively”.
In the case of `CN(C)c1cccc2c(S(=O)(=O)NCCCCCC[C@H]3NC[C@@H](O)[C@@H](O)[C@H]3CO)cccc12` [Compound 22], the Ki was 0.0004 µM in experiment [2] and over 1000 µM in experiment [3]. In addition, in experiment [1], the “chaperoning activity” value is listed as “reacted very positively; also recorded: encouraging dose-dependent chaperoning profiles”.
In the case of `CCCCCCCCNC1C=C(CO)C(O)C(O)C1O` (stereo not drawn) [Compound 1, N-octyl-epi-valienamine], the Ki in experiment [2] was 2.8 µM; in experiment [3] it was over 1000 µM.
`CN(C)c1cccc2c(S(=O)(=O)NCCCCCCN[C@H]3[C@H](F)[C@@H](O)[C@@H](O)[C@H]3CO)cccc12` [Compound 37, (1S,2S,3S,4R,5R)-4-(6′-Dansylaminohexyl)amino-3-fluoro-5-hydroxymethylcyclopentane-1,2-diol] registered a Ki in experiment [2] of 5.2 µM. Also, in experiment [2] (compared to inhibitor 17), the “fold weaker binding than 17, GH2 bacterial glycosidase” value was “approx. 500 fold”. In experiment [1], the “chaperoning activity” value is on record as “only trailed by deoxyfluoro analog 37”, the “β-galactosidase activity at higher concentrations” value is given as “decreased enzyme activity”, the “β-galactosidase activity at more than 100 µM” value is recorded as “dramatic loss” and the “influence on β-galactosidase activity” value is “no notable influence”. Also, the Ki in experiment [3] was 22.5 µM.
